Data published in patent publication US20240197897A1, “HETEROTANDEM BICYCLIC PEPTIDE COMPLEXES” (Bicycle Tx Limited, priority 2021, published 2024).
Like-named read-outs stand apart in the source and are kept apart here. Starred links: 1 amine or outer side, 2 acyl side, 3 side chain; linkers in the order of their positions; H or OH if unused. Positions of bridges follow the written chain, without caps; N, C: chain ends. Non-standard residues stand in square brackets, D forms with d. Residues, ends and D or L forms follow the SMILES beside them. Chains are numbered I, II in the order given. No end group written: not given here. *: point of attachment. X3 = O=C(CCOCCOCCOCCOCCOCCOCCOCCOCCOCCOCCOCCOCCOCCOCCOCCOCCOCCOCCOCCOCCOCCOCCOCCOCCn1cc(CCC(=O)[*:2])nn1)[*:1]; TBMT = 2,4,6-tris(bromomethyl)-s-triazine, molecular scaffold, C(c1nc(C[*:2])nc(C[*:3])n1)[*:1]; X1 = O=C(CCOCCOCCOCCN(CCOCCOCCOCCn1cc(CCC(=O)[*:2])nn1)CCOCCOCCOCCn1cc(CCC(=O)[*:3])nn1)[*:1]; TATA = O=C(CC[*:1])N1CN(C(=O)CC[*:2])CN(C(=O)CC[*:3])C1; Hyp = O=C(O)[C@@H]1C[C@@H](O)CN1; hArg = N=C(N)NCCCC[C@H](N)C(=O)O; Cba = N[C@@H](CC1CCC1)C(=O)O; Pent4ynoyl = C#CCCC(=O)*

Legend:
HT1080-luc cells = assay: NK cytotoxicity assay (NK:HT1080-luc co-culture, luciferase readout); type: cell-based, human; details: for effect on tumor cell killing by NK cells, in words: in comparison to NK:HT1080-luc co-culture without heterotandem complex (NK-TICA)
Method: (§1) Heterotandem bicyclic peptide complexes were evaluated for NK functional readouts (cytotoxicity and cytokine secretion) in NK-tumor cell line co-cultures.
(§2) NK cells were isolated using a negative isolation kit (STEMCELL™ Technologies 17955) from the total PBMC population purified from whole blood. NK cell pellet was then resuspended in DMEM medium (Corning™ 10-013-CV) with 10% heat-inactivated fetal bovine serum (FBS; Corning® 35-011-CV), 10 mM HEPES (Gibco™ 15-630-080), and 1% Penicillin Streptomycin (Corning™ 30-002-CI), and 50 IU/mL human IL-2 (Miltenyi Biotec® 130-097-748), at a concentration of 4×10^5 cells/mL. For the NK cell cytotoxicity assays, 50 μL (2×10^4) of cell suspension was plated in the 96-well plate (Grenier® Bio One™ 655090) containing 50 μl (4×10^3) HT1080-luc cells (ATCC® CCL-121-luc2) in DMEM (Gibco™ 11875-093; with L-glutamine) with 10% heat-inactivated fetal bovine serum (FBS; Corning® 35-011-CV), 10 mM HEPES (Gibco™ 15-630-080), and 1% Penicillin Streptomycin (Corning™ 30-002-CI). […] The plates were then incubated for 24 hours at 37° C., 5% CO2. Post-incubation, plates was centrifuged at 250×g for 5 minutes and 100 μl supernatant discarded. Samples were then incubated 10 minutes with 50 μl Bright-Glo™ Luciferase Assay system (Promega™ E2620). Luminescence upon excitation at 570 nm was read using a CLARIOstar® plate-reader with MARS Data Analysis Software™. Data was fit to a four-parameter non-linear regression in GraphPad Prism™ 8.0.2 to generate an EC50 value.

[1] = as above; type: cell-based, human; details: NK:HT1080-luc co-culture, 24 hours, read-out: EC50 NK cytotoxicity (tumor cell killing)
Method: as §1, §2

NKp46 (human) = NKp46 (human) (UniProt O76036); assay: cell-based or functional assay
NKp46 (human), sequence (O76036 22-304): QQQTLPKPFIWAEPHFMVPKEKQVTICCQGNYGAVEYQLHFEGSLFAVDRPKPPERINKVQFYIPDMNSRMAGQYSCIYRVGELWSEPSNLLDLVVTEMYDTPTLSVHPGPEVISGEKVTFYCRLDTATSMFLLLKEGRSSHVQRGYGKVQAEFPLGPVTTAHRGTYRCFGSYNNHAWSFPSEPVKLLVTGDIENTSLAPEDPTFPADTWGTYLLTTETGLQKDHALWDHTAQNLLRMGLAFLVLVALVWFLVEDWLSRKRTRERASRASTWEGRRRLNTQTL

[2] = four-parameter logistic regression, FIGS. 2-4, 6-8, 10

Row | Molecule | effect on tumor cell killing by NK cells, in words (HT1080-luc cells) | EC50 [1, 2] [nM] | other results
1 | BCY17235: EphA2 peptide BCY9594 linked to NKp46 peptide (BCY17224) and CD16a peptide (BCY13883) via a TCA-[Peg23]3 linker (peptide 1 A[hArg]DC[Hyp]LVNPLCLHP[dD]W[hArg]C; peptide 2 Ac-CY[Cba]PDYLC[dA]DEYCK(Pent4ynoyl); peptide 3 ACRWSVEDPCGAWCAK(Pent4ynoyl); linker I:4-I:11-I:18, II:1-II:8-II:13 via TATA; linker III:2-III:10-III:14 via TBMT; also: chain 1 N-terminus and the K(PYA) of chains 2 and 3 joined through TCA-[Peg23]3 linker) | enhanced, dose-dependent effect on tumor cell killing |  | EC50 (HT1080-luc cells; NK:HT1080-luc co-culture, 24 hours, four-parameter logistic regression, FIGS. 2-4, 6-8, 10, read-out: EC50 NK cytotoxicity (tumor cell killing)): 0.014 nM
2 | CC(=O)N[C@H]1CSCCC(=O)N2CN3CN(C2)C(=O)CCSC[C@H](NC(=O)[C@H](CC(C)C)NC(=O)[C@H](Cc2ccc(O)cc2)NC(=O)[C@H](CC(=O)O)NC(=O)[C@@H]2CCCN2C(=O)[C@H](CC2CCC2)NC(=O)[C@H](Cc2ccc(O)cc2)NC1=O)C(=O)N[C@H](C)C(=O)N[C@@H](CC(=O)O)C(=O)N[C@@H](CCC(=O)O)C(=O)N[C@@H](Cc1ccc(O)cc1)C(=O)N[C@H](C(=O)N[C@@H](CCCCNC(=O)CCc1cn(CCOCCOCCOCCOCCOCCOCCOCCOCCOCCOCCOCCOCCOCCOCCOCCOCCOCCOCCOCCOCCOCCOCCOCCOCCC(=O)N[C@@H](C)C(=O)N[C@@H](CCCCNC(=N)N)C(=O)N[C@@H](CC(=O)O)C(=O)N[C@H]2CSCCC(=O)N4CN5CN(C4)C(=O)CCSC[C@H](NC(=O)[C@H](CC(C)C)NC(=O)[C@@H]4CCCN4C(=O)[C@H](CC(N)=O)NC(=O)[C@H](C(C)C)NC(=O)[C@H](CC(C)C)NC(=O)[C@@H]4C[C@@H](O)CN4C2=O)C(=O)N[C@@H](CC(C)C)C(=O)N[C@@H](Cc2c[nH]cn2)C(=O)N2CCC[C@H]2C(=O)N[C@H](CC(=O)O)C(=O)N[C@@H](Cc2c[nH]c4ccccc24)C(=O)N[C@@H](CCCCNC(=N)N)C(=O)N[C@H](C(N)=O)CSCCC5=O)nn1)C(N)=O)CSCCC3=O [BCY18731] (I: A[hArg]DC[Hyp]LVNPLCLHP[dD]W[hArg]C-NH2 / II: Ac-CY[Cba]PDYLC[dA]DEYCK-NH2; linker I:4-I:11-I:18, II:1-II:8-II:13 via TATA; linker I:N-II:14 via X3; C-terminus assumed) |  | 0.018 | 
3 | CC[C@H](C)[C@@H]1NC(=O)CNC(=O)[C@H](Cc2c[nH]c3ccccc23)NC(=O)[C@H](CCC(N)=O)NC(=O)[C@@H]2CSCCC(=O)N3CN(CN(C3)C(=O)CCSC[C@@H](C(=O)N[C@@H](C)C(=O)N[C@@H](CCCCNC(=O)CCc3cn(CCOCCOCCOCCN(CCOCCOCCOCCC(=O)N[C@@H](C)C(=O)N[C@@H](CCCCNC(=N)N)C(=O)N[C@@H](CC(=O)O)C(=O)N[C@H]4CSCCC(=O)N5CN6CN(C5)C(=O)CCSC[C@H](NC(=O)[C@H](CC(C)C)NC(=O)[C@@H]5CCCN5C(=O)[C@H](CC(N)=O)NC(=O)[C@H](C(C)C)NC(=O)[C@H](CC(C)C)NC(=O)[C@@H]5C[C@@H](O)CN5C4=O)C(=O)N[C@@H](CC(C)C)C(=O)N[C@@H](Cc4c[nH]cn4)C(=O)N4CCC[C@H]4C(=O)N[C@H](CC(=O)O)C(=O)N[C@@H](Cc4c[nH]c5ccccc45)C(=O)N[C@@H](CCCCNC(=N)N)C(=O)N[C@H](C(N)=O)CSCCC6=O)CCOCCOCCOCCn4cc(CCC(=O)NCCCC[C@H](NC(=O)[C@H](C)NC(=O)[C@@H]5CSCCC(=O)N6CN7CN(C6)C(=O)CCSC[C@H](NC(=O)[C@H](CC(N)=O)NC(=O)[C@H](Cc6c[nH]cn6)NC(=O)[C@H]([C@@H](C)O)NC(=O)[C@H]([C@@H](C)O)NC(=O)[C@H](CC(C)C)NC(=O)[C@H](CC(=O)O)NC(=O)[C@@H](NC(=O)[C@H](C)N)CSCCC7=O)C(=O)N[C@@H](CCC(N)=O)C(=O)N[C@@H](Cc6c[nH]c7ccccc67)C(=O)NCC(=O)N[C@@H]([C@@H](C)CC)C(=O)N5)C(N)=O)nn4)nn3)C(N)=O)NC1=O)C(=O)CCSC[C@H](NC(=O)[C@H](C)N)C(=O)N[C@@H](CC(=O)O)C(=O)N[C@@H](CC(C)C)C(=O)N[C@@H]([C@@H](C)O)C(=O)N[C@@H]([C@@H](C)O)C(=O)N[C@@H](Cc1c[nH]cn1)C(=O)N[C@@H](CC(N)=O)C(=O)N2 [BCY15923] | dose-dependent NK cell response to kill | 0.044 | 
4 | I: Ac-D[hArg]CSAGWLTMCQKLHLCPSH-NH2 / II: Ac-CY[Cba]PDYLC[dA]DEYCK-NH2 / III: Ac-CY[Cba]PDYLC[dA]DEYCK-NH2 (linker I:3-I:11-I:17, II:1-II:8-II:13, III:1-III:8-III:13 via TATA; linker I:13-II:14-III:14 via X1; C-terminus assumed) [BCY18603] | enhanced NK cytotoxicity | 0.003 | 
5 | I: A[hArg]DC[Hyp]LVNPLCLHP[dD]W[hArg]C-NH2 / II: Ac-CY[Cba]PDYLC[dA]DEYCK-NH2 / III: Ac-CY[Cba]PDYLC[dA]DEYCK-NH2 (linker I:4-I:11-I:18, II:1-II:8-II:13, III:1-III:8-III:13 via TATA; linker I:N-II:14-III:14 via X1; C-terminus assumed) [BCY17226] | dose-dependent NK cell response to kill | 0.0061 | 
6 | I: A[hArg]DC[Hyp]LVNPLCLHP[dD]W[hArg]C-NH2 / II: ACNLQAPCMQTGKVCAK-NH2 / III: ACNLQAPCMQTGKVCAK-NH2 (linker I:4-I:11-I:18, II:2-II:8-II:15, III:2-III:8-III:15 via TATA; linker I:N-II:17-III:17 via X1; C-terminus assumed) [BCY15924] | enhanced NK cytotoxicity |  | EC50 ([1]; FIG. 9): 0.5 nM
7 | CC(=O)N[C@H]1CSCCC(=O)N2CN3CN(C2)C(=O)CCSC[C@H](NC(=O)[C@H](CC(C)C)NC(=O)[C@H](Cc2ccc(O)cc2)NC(=O)[C@H](CC(=O)O)NC(=O)[C@@H]2CCCN2C(=O)[C@H](CC2CCC2)NC(=O)[C@H](Cc2ccc(O)cc2)NC1=O)C(=O)N[C@H](C)C(=O)N[C@@H](CC(=O)O)C(=O)N[C@@H](CCC(=O)O)C(=O)N[C@@H](Cc1ccc(O)cc1)C(=O)N[C@H](C(=O)N[C@@H](CCCCNC(=O)CCc1cn(CCOCCOCCOCCN(CCOCCOCCOCCC(=O)N[C@@H](CC(C)C)C(=O)N2CCC[C@H]2C(=O)N2CCC[C@H]2C(=O)N[C@H]2CSCCC(=O)N4CN5CN(C4)C(=O)CCSC[C@H](NC(=O)[C@H](CCC(=O)O)NC(=O)[C@H](CCCCNC(=N)N)NC(=O)[C@H](C(C)C)NC2=O)C(=O)N[C@@H](C)C(=O)N[C@@H](CC(C)(C)C)C(=O)N[C@@H](CC(C)C)C(=O)N[C@@H](Cc2ccccc2)C(=O)N2CCC[C@H]2C(=O)N[C@@H](CCCCNC(=N)N)C(=O)N[C@@H]([C@@H](C)O)C(=O)N[C@H](C(N)=O)CSCCC5=O)CCOCCOCCOCCn2cc(CCC(=O)NCCCC[C@H](NC(=O)[C@@H]4CSCCC(=O)N5CN6CN(C5)C(=O)CCSC[C@H](NC(=O)[C@H](CC(C)C)NC(=O)[C@H](Cc5ccc(O)cc5)NC(=O)[C@H](CC(=O)O)NC(=O)[C@@H]5CCCN5C(=O)[C@H](CC5CCC5)NC(=O)[C@H](Cc5ccc(O)cc5)NC(=O)[C@@H](NC(C)=O)CSCCC6=O)C(=O)N[C@H](C)C(=O)N[C@@H](CC(=O)O)C(=O)N[C@@H](CCC(=O)O)C(=O)N[C@@H](Cc5ccc(O)cc5)C(=O)N4)C(N)=O)nn2)nn1)C(N)=O)CSCCC3=O [BCY18604] | enhanced NK cytotoxicity | 0.0079 | 
8 | heterotandem bicyclic peptide complex BCY21686 (linker I:4-I:11-I:18, II:1-II:8-II:13 via TATA; not fully specified (bridges); also: EphA2:NKp46 1:3, three copies of chain 2 on the linker, linker also given with PEG3-acid, X5, X17: HyP or HArg) peptide 1: A[hArg]DC[Hyp]LVNPLCLHP[dD]W[hArg]C peptide 2: Ac-CY[Cba]PDYLC[dA]DEYCK(Pent4ynoyl) |  |  | EC50, NK cytotoxicity assay (HT1080-luc luminescence) (NKp46 (human)): 0.0013 nM
9 | heterotandem bicyclic peptide complex BCY18731 (linker I:4-I:11-I:18, II:1-II:8-II:13 via TATA; not fully specified (bridges); also: joined via azide-PEG24-acid linker (N-terminus of chain 1 to PYA of chain 2, triazole)) peptide 1: A[hArg]DC[Hyp]LVNPLCLHP[dD]W[hArg]C peptide 2: Ac-CY[Cba]PDYLC[dA]DEYCK(Pent4ynoyl) |  |  | EC50, NK cytotoxicity assay (HT1080-luc luminescence) (NKp46 (human)): 0.018 nM
